For experiment [1], the target named is T1, recombinant human Lp-PLA2 (Homo sapiens, UniProt Q13093).
T1 sequence (Q13093 22-441): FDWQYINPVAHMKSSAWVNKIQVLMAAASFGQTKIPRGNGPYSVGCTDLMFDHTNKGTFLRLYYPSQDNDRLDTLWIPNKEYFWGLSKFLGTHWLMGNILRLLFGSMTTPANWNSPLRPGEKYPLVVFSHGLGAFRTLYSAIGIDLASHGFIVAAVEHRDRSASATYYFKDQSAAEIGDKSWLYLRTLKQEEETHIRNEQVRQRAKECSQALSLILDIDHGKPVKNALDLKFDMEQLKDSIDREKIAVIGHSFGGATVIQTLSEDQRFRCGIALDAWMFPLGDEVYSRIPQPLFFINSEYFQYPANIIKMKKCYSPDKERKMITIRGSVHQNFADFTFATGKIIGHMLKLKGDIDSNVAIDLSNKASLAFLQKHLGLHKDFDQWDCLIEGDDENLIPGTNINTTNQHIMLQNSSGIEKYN
The experiment in a line: Recombinant human Lp-PLA2 assay (rhLp-PLA2, PED6 assay). Format: biochemical. From the text: (1) Recombinant Human Lp-PLA2 Assay (rhLp-PLA2) (Also Referred to as “PED6” Assay)
N-((6-(2,4-dinitrophenyl)amino)-hexanoyl)-2-(4,4-difluoro-5,7-dimethyl-4-bora-3a,4a-diaza-s-indacene-3-pentanoyl)-1-hexadecanoyl-sn-glycero-3-phosphoethanolamine, triethylammonium salt (PED6) is a commercially available fluorescently-labeled phospholipid, which is commercially available from Invitrogene and Molecular Probes. There is a quenching […] and a Bodipy fluorescein (FL) group in the sn2 position. Upon cleavage with Lp-PLA2, the Bodipy FL group is liberated and then may result in an increase in fluorescence. Inhibitors of Lp-PLA2 therefore prevent this cleavage and no fluorescent increase is observed.
The PED6 assay was run as an unquenched 10 μL assay. The source plate containing the compounds to be tested was prepared by making 1:3 (by volume) serial dilution of the compounds within DMSO on 384-well microplate. Then, 0.01 μL of the compounds on compound source plate were transferred into 384 well Greiner 784076 (black) plates using ECHO liquid dispenser. 5 μL of recombinant human Lp-PLA2 enzyme (4 nM (or […]) rhLp-PLA2 in assay buffer of 50 mM HEPES, pH 7.4, 150 mM NaCl, 1 mM CHAPS) was added to each well of the plate. Plates were centrifuged for 10 sec at 500 rpm. After 30 minutes preincubation, 5 μL of substrate ([…] PED6 [from 5 mM DMSO stock] in assay buffer of 50 mM HEPES, pH 7.4, 150 mM NaCl, 1 mM CHAPS) was added to 384 well Greiner 784076 (black) plates. Plates were centrifuged for 10 sec at 500 rpm. The plate was covered to protect it from light and incubated for 20 min at room temperature. The plates were read for fluorescence intensity at ex: 480/em: 540 using ViewLux microplate imager for Envision spectrofluoroimeters pIC50 data, curve and QC analysis was conducted by using XL fit module in Excel.

Another experiment addresses T2, Lp-PLA2 in human plasma (Homo sapiens, UniProt Q13093).
T2 construct: from tissue; host or cells: pooled human plasma
T2 sequence (Q13093 22-441): T1 sequence (Q13093 22-441)
The experiment in a line: Lp-PLA2 human plasma assay (Thio-PAF assay). Format: biochemical. Conditions: pooled human plasma; lower bounds; read-out: pIC50 values in the thio-PAF assay (converted). From the text:
(3) Lipoprotein-Associated Phospholipase A2 (Lp-PLA2) Human Plasma Assay (Also Referred to as “Thio-PAF assay”)
The human plasma assay utilizes a thioester analog of PAF (phosphatidylcholine), where hydrolysis yields to the formation of a phospholipid containing a free thiol group. The amount of thiol is quantitated continuously by reacting with CPM (7-diethylamino-3-(4′-maleimidylphenyl)-4-methylcoumarin), a maleimide which increases in fluoresence after Michael addition of thiols. This assay may detect the activity of Lp-PLA2 in human plasma, as determined by specific inhibition by Lp-PLA2 inhibitors.
The thio-PAF assay was run as a quenched 15 μL assay. Compounds source plate was prepared by making 1:3 (by volume) serial dilution of the compounds into pure DMSO on 384-well microplate. 0.01 μL of compounds on compound source plate were transferred to 384 well Greiner 784076 (black) low-volume plates by ECHO liquid dispenser. 8 μL pooled human plasma, which was previously aliquoted and frozen, was added. Plates were centrifuged for 10 sec at 500 rpm. After 30 minutes preincubation, 2 μL of substrate solution comprising 2.5 mM 2-thio-PAF [from ethanol stock], 32 μM CPM [from a DMSO stock] and 3.2 mM NEM (N-ethylmaleimide) [made fresh daily in DMSO] in assay buffer of 50 mM HEPES, pH 7.4, 150 mM NaCl, 1 mM CHAPS was added to 384 well Greiner 784076 (black) low-volume plates by BRAVO liquid handling station. After 2 mins, reaction was quenched with 5 μL of 5% aqueous trifluoroacetic acid (TFA). Plates were covered to protect from light and incubated for 40 min at room temperature. Plates were read at ex: 380/em: 485 using-Envision microplate reader. PIC50 data, curve and QC analysis were conducted by using XLFit module in Excel.

[2] abbreviates: lower bounds, read-out: pIC50 values in the PED6 assay (converted).
The mark [3] stands for this setting: read-out: rhLp-PLA2 (PED6 assay) (pIC50) (converted).

Structures are written as SMILES. Where two headings read alike, the source gives them in different places. A value given as a limit tells only on which side of the number the result lay.

`CN1c2cc(OCc3ccc(Oc4ccc(F)nc4)c(F)c3)nc(=O)n2CC1(C)C` [Example E98, 7-((3-fluoro-4-((6-fluoropyridin-3-yl)oxy)benzyl)oxy)-1,2,2-trimethyl-2,3-dihydroimidazo[1,2-c]pyrimidin-5(1H)-one]: the IC50 in experiment [1] (setting [2]) was at most 1 nM; at Lp-PLA2 in human plasma, at most 100 nM.
For `CN1c2cc(OCc3ccc(Oc4cncc(C(F)(F)F)c4)c(F)c3)nc(=O)n2CC1(C)C` [Example E26, 7-((3-fluoro-4-((5-(trifluoromethyl)pyridin-3-yl)oxy)benzyl)oxy)-1,2,2-trimethyl-2,3-dihydroimidazo[1,2-c]pyrimidin-5(1H)-one], the IC50 in experiment [1] (setting [2]) was at most 1 nM; in experiment [1] (setting [3]), 0.0158 nM; at Lp-PLA2 in human plasma, at most 100 nM.
For `C[C@@H]1Cn2c(cc(OCc3ccc(Oc4ccnc(C(F)(F)F)c4)c(F)c3)nc2=O)N1C` [Example E51, (R)-7-((3-fluoro-4-((2-(trifluoromethyl)pyridin-4-yl)oxy)benzyl)oxy)-1,2-dimethyl-2,3-dihydroimidazo[1,2-c]pyrimidin-5(1H)-one], the figures for the IC50 (in experiment [1] (setting [2]); on Lp-PLA2 in human plasma) were at most 1 nM and at most 100 nM, respectively.
With `CC1(C)Cn2c(cc(OCc3cc(F)c(Oc4cncc(C(F)(F)F)c4)c(F)c3)nc2=O)N1` [Example E91, 7-((3,5-difluoro-4-((5-(trifluoromethyl)pyridin-3-yl)oxy)benzyl)oxy)-2,2-dimethyl-2,3-dihydroimidazo[1,2-c]pyrimidin-5(1H)-one], the IC50 in experiment [1] (setting [2]) is at most 1 nM; on Lp-PLA2 in human plasma, at most 100 nM.
For `[2H]C([2H])(Oc1cc2n(c(=O)n1)CC(C)(C)N2C)c1cccc(F)c1F` [Example E67, 7-(dideutero(2,3-difluorobenzyl)oxy)-1,2,2-trimethyl-2,3-dihydroimidazo[1,2-c]pyrimidin-5(1H)-one] the same measures were at most 10 nM and at most 100 nM.
On to `CN1c2cc(OCc3cc(F)c(Oc4ccc(F)nc4)c(F)c3)nc(=O)n2CC1(C)C` [Example E64, 7-((3,5-difluoro-4-((6-fluoropyridin-3-yl)oxy)benzyl)oxy)-1,2,2-trimethyl-2,3-dihydroimidazo[1,2-c]pyrimidin-5(1H)-one], for which the figures for the IC50 (in experiment [1] (setting [2]); in experiment [1] (setting [3]); on Lp-PLA2 in human plasma) were at most 1 nM, 0.0794 nM and at most 100 nM, respectively.
With `CN1c2cc(OCc3ccc(F)c(Cl)c3)nc(=O)n2CC1(C)C` [Example E11, 7-((3-chloro-4-fluorobenzyl)oxy)-1,2,2-trimethyl-2,3-dihydroimidazo[1,2-c]pyrimidin-5(1H)-one], the values for the IC50 (in experiment [1] (setting [2]); at Lp-PLA2 in human plasma) were at most 1 nM and at most 100 nM, respectively.
Consider `CC1(C)Cn2c(cc(OCc3ccc(Oc4cncc(C(F)(F)F)c4)c(F)c3)nc2=O)N1` [Example E41, 7-((3-fluoro-4-((5-(trifluoromethyl)pyridin-3-yl)oxy)benzyl)oxy)-2,2-dimethyl-2,3-dihydroimidazo[1,2-c]pyrimidin-5(1H)-one], for which the IC50 in experiment [1] (setting [2]) was at most 1 nM; on Lp-PLA2 in human plasma, at most 100 nM.
Consider `CC1Cn2c(cc(OCc3ccc(F)c(F)c3)nc2=O)N1C` (stereo not drawn) [Example E2, 7-((3,4-difluorobenzyl)oxy)-1,2-dimethyl-2,3-dihydroimidazo[1,2-c]pyrimidin-5(1H)-one], for which the IC50 is at most 10 nM in experiment [1] (setting [2]) and at most 100 nM at Lp-PLA2 in human plasma.
Consider `CC1(C)Cn2c(cc(OCc3cc(F)c(Oc4ccc(C(F)(F)F)nc4)c(F)c3)nc2=O)N1` [Example E39, 7-((3,5-difluoro-4-((6-(trifluoromethyl)pyridin-3-yl)oxy)benzyl)oxy)-2,2-dimethyl-2,3-dihydroimidazo[1,2-c]pyrimidin-5(1H)-one], for which the figures for the IC50 (in experiment [1] (setting [2]); at Lp-PLA2 in human plasma) were at most 1 nM and at most 100 nM, respectively.
Turning to `CN1c2cc(OCc3ccc(Oc4ccc(Cl)nc4)c(F)c3)nc(=O)n2CC1(C)C` [Example E12, 7-((4-((6-chloropyridin-3-yl)oxy)-3-fluorobenzyl)oxy)-1,2,2-trimethyl-2,3-dihydroimidazo[1,2-c]pyrimidin-5(1H)-one], the IC50 in experiment [1] (setting [2]) was at most 1 nM; in experiment [1] (setting [3]), 0.0316 nM; at Lp-PLA2 in human plasma, at most 100 nM.
For `CN1c2cc(OCc3cc(F)c(Oc4ccc(Cl)nc4)c(F)c3)nc(=O)n2CC1(C)C` [Example E13, 7-((4-((6-chloropyridin-3-yl)oxy)-3,5-difluorobenzyl)oxy)-1,2,2-trimethyl-2,3-dihydroimidazo[1,2-c]pyrimidin-5(1H)-one] the same measures were at most 1 nM, 0.0501 nM and at most 100 nM.
Regarding `C[C@H]1Cn2c(cc(OCc3ccc(Oc4cnc(C(F)(F)F)nc4)c(F)c3)nc2=O)N1C` [Example E40, (S)-7-((3-fluoro-4-((2-(trifluoromethyl)pyrimidin-5-yl)oxy)benzyl)oxy)-1,2-dimethyl 2,3-dihydroimidazo[1,2-c]pyrimidin-5(1H)-one], the IC50 in experiment [1] (setting [2]) was at most 10 nM; at Lp-PLA2 in human plasma, at most 100 nM.
As for `CCN1c2cc(OCc3cc(F)cc(F)c3)nc(=O)n2CC1(C)C` [Example E129, 7-((3,5-difluorobenzyl)oxy)-1-ethyl-2,2-dimethyl-2,3-dihydroimidazo[1,2-c]pyrimidin-5(1H)-one], the IC50 in experiment [1] (setting [2]) is at most 10 nM; at Lp-PLA2 in human plasma, at most 100 nM.
For the compound `CN1c2cc(OCc3cc(F)c(Oc4cncc(C(F)(F)F)c4)c(F)c3)nc(=O)n2CC1(C)C` [Example E61, 7-((3,5-difluoro-4-((5-(trifluoromethyl)pyridin-3-yl)oxy)benzyl)oxy)-1,2,2-trimethyl-2,3-dihydroimidazo[1,2-c]pyrimidin-5(1H)-one], the figures for the IC50 (in experiment [1] (setting [2]); in experiment [1] (setting [3]); at Lp-PLA2 in human plasma) were at most 1 nM, 0.126 nM and at most 100 nM, respectively.
Take `CC1(C)Cn2c(cc(OCc3cc(F)c(F)c(F)c3)nc2=O)N1` [Example E50, 2,2-dimethyl-7-((3,4,5-trifluorobenzyl)oxy)-2,3-dihydroimidazo[1,2-c]pyrimidin-5(1H)-one]: the IC50 is at most 1 nM in experiment [1] (setting [2]) and at most 100 nM at Lp-PLA2 in human plasma.
Regarding `CN1c2cc(OCc3ccc(Oc4ccnc(F)c4)c(F)c3)nc(=O)n2CC1(C)C` [Example E29, 7-((3-fluoro-4-((2-fluoropyridin-4-yl)oxy)benzyl)oxy)-1,2,2-trimethyl-2,3-dihydroimidazo[1,2-c]pyrimidin-5(1H)-one], the IC50 in experiment [1] (setting [2]) is at most 1 nM; in experiment [1] (setting [3]), 0.2 nM; at Lp-PLA2 in human plasma, at most 100 nM.
For `C[C@H]1Cn2c(cc(OCc3ccc(F)c(C#N)c3)nc2=O)N1C` [Example E75, (S)-5-(((1,2-dimethyl-5-oxo-1,2,3,5-tetrahydroimidazo[1,2-c]pyrimidin-7-yl)oxy)methyl)-2-fluorobenzonitrile], the figures for the IC50 (in experiment [1] (setting [2]); at Lp-PLA2 in human plasma) were at most 10 nM and at most 100 nM, respectively.

These data come from US9051325B2, “Bicyclic [5,6] imidazo pyrimodone compounds for use in the treatment of diseases or conditions mediated by Lp-PLA2” (GlaxoSmithKline Intellectual Property Development Limited, priority 2013, dated 2015).
